Experimental data taken from PubChem BioAssay AID1421 (Emory University Molecular Libraries Screening Center, 2008).

target: Prostaglandin E2 receptor EP2 subtype (Homo sapiens) (UniProt P43116); test: compounds shifting PGE2 potency at EP2 – cell-based, human EP2, PGE2 EC50 shift, dose response (AID 1421); conditions: EP2-expressing cells, PGE2 EC50 shift by compound; measured here: PGE2 EC50 at 6.7 uM compound
Sequence (P43116 whole entry, looked up): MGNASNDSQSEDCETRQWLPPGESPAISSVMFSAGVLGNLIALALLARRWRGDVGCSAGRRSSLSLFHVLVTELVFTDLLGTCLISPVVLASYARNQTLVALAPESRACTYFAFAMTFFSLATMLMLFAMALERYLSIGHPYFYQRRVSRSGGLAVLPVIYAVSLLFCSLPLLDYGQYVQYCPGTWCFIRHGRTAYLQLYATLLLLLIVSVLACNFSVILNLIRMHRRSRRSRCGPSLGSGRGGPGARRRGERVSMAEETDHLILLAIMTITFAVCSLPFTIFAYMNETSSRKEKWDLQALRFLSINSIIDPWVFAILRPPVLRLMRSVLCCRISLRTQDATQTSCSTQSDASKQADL

Row | SMILES | PGE2 EC50 with compound
1 | CCOC(=O)n1c(=O)n(Cc2ccc(Cl)c(Cl)c2)c2ccccc21 | 0.9 nM
2 | CCSc1nc2sc3c(c2c(=O)n1CC)CC(C)(C)OC3 | 0.96 nM
3 | Cn1c(=O)c2c(nc(CN3CCN(c4ccccc4)CC3)n2Cc2ccccc2Cl)n(C)c1=O | 2.59 nM
4 | C=CCN1C(=O)N(/C=C/C)c2cccc3cccc1c23 | 2.79 nM
5 | OC(COc1ccccc1)Cn1c2ccccc2c2ccccc21 (centres undefined) | 1.4 nM
6 | COc1nc(-c2ccccc2)nnc1-c1ccccc1 | 1.05 nM
7 | CCc1ccccc1NC(=S)N(Cc1ccco1)C(C)c1cccs1 (centres undefined) | 0.9 nM
8 | CCOC(=O)c1c(C2COc3ccccc3O2)csc1N (centres undefined) | 1.39 nM
9 | OC1(c2ccc(Br)cc2)CN(c2ccccc2)C2=[N+]1CCS2 (centres undefined) | 1.17 nM
10 | Cc1cccc(/C=N/Nc2cc(N3CCOCC3)nc(N3CCOCC3)n2)c1 | 1.08 nM
11 | O=S(=O)(c1cccs1)N1CN(Cc2cccs2)c2nc3ccccc3nc21 | 1.64 nM
12 | O=C(Oc1ccc(-c2nccc(-c3ccccn3)n2)cc1)c1cccc(C(F)(F)F)c1 | 1.44 nM
13 | O=S(=O)(c1ccccc1)c1nc(-c2ccco2)oc1N1CCCCCC1 | 1.21 nM
14 | CCOc1ccc(OCC)c(NC(=O)CN2CCN(c3cc(C)ccc3C)CC2)c1 | 0.8 nM
15 | CCC(=O)N(CC)c1nc(-c2cc(OC)ccc2OC)cs1 | 1.09 nM
16 | O=C(Nc1ccccc1N1CCCCC1)c1cccc(F)c1 | 0.95 nM
17 | N#CCSc1nc2ccccc2c(=O)n1C1CCCCC1 | 1.09 nM
18 | CS(=O)(=O)N(Cc1ccccc1)c1ccccc1C(=O)Nc1ccccc1C(=O)NCc1ccco1 | 3.04 nM
19 | COc1ccc(-n2c(=S)[nH]c3c(oc4ccccc43)c2=O)cc1 | 2.8 nM
20 | CCSc1ccccc1C(=O)Nc1ccc([N+](=O)[O-])cc1OC | 1.06 nM

Row | SMILES | PGE2 EC50 with compound
21 | CCCCNc1nc(-c2ccccc2)c(C(=O)OCC)cc1C#N | 0.88 nM
22 | Cc1ccc(N=N/C(=C\O)C(=O)c2ccc(Cl)cc2)cc1 | 0.87 nM
23 | Cc1sc(NC(=O)CN2CCOCC2)c(C(=O)c2ccccc2)c1C | 1.18 nM
24 | Cc1cc(C)c2cc(C)c(SCC(=O)NCc3ccco3)nc2c1 | 1.03 nM
25 | O=C(Nc1ccccc1Sc1ccccc1)c1ccc(F)cc1 | 0.97 nM
26 | COc1ccc(C2CC(C(F)(F)F)n3nc(C(N)=O)c(Cl)c3N2)cc1OC (centres undefined) | 0.71 nM
27 | CCOC(=O)C1CCN(c2c(C(=O)c3ccccc3)cnc3ccc(CC)cc23)CC1 | 0.91 nM
28 | Clc1ccc(Cn2c(/C=C/c3ccco3)nc3ccccc32)cc1 | 1.38 nM
29 | CCCSc1ncnc2sc(C)c(C)c12 | 0.89 nM
30 | CC1Cc2ccccc2N1CC(=O)NC(c1ccccc1)c1ccccc1 (centres undefined) | 1.48 nM
31 | Cc1cc(OCC(=O)OC(C)C)c2c3c(c(=O)oc2c1)CCCC3 | 0.81 nM
32 | CC(=O)Nc1sc2c(c1C(c1cccs1)N1CCOCC1)CCCC2 (centres undefined) | 0.99 nM
33 | Oc1ccccc1-c1nc(N2CCCC2)c2ccccc2n1 | 0.64 nM
34 | O=C(CN1CCN(Cc2ccccc2)CC1)Nc1ccccc1-c1ccccc1 | 2.97 nM
35 | CC(C)NC(=S)NN=C1CCCCCCCCCCC1 | 0.97 nM
36 | COC(=O)c1cc(-c2ccc3c(c2)OCO3)nc2ccccc12 | 0.7 nM
37 | Cc1cc(C)c(S(=O)(=O)c2ccccc2)c(OC(=O)c2cc(F)c(F)cc2Cl)n1 | 0.91 nM
38 | Cn1c(C(=O)N2CCCc3ccccc32)cc2sccc21 | 2.41 nM
39 | COc1ccc(C(=O)c2cnc3ccccc3c2-c2ccccc2)cc1 | 0.59 nM
40 | CCn1c(=S)[nH]c2c(c1=O)C(C)(C)Cc1ccccc1-2 | 0.76 nM

Row | SMILES | PGE2 EC50 with compound
41 | CCOc1ccccc1Cn1c(=O)sc2ccccc21 | 2.65 nM
42 | COc1ccc(-c2cc(C(F)(F)F)nc(N3CCCCC3)n2)cc1OC | 0.57 nM
43 | O=C1c2ccccc2OC2(C=Cc3ccccc3O2)N1Cc1ccccc1 (centres undefined) | 0.31 nM
44 | O=C(CSc1nnc(-c2ccc(Cl)cc2)n1Cc1ccco1)c1cccs1 | 2.65 nM
45 | CCCC/C(=N\NC(=O)c1ccc(Br)o1)c1ccccc1 | 2.49 nM
46 | C=CCn1c(SCC(N)=O)nc(C)cc1=O | 1.07 nM
47 | CC(=O)O[C@H]1C[C@@H](OC(C)=O)C(C)(C)C2C[C@@H](OC(C)=O)[C@]3(C)C([C@H](OC(C)=O)C[C@@]4(C)[C@H](c5ccoc5)OC(=O)[C@H]5O[C@]543)[C@]21C (some centres undefined) | 1.05 nM
48 | O=C(Cc1ccccc1)Nc1ccccc1N1CCN(c2ccccc2)CC1 | 0.95 nM
49 | CCOc1ccc(-n2nc3c(=S)[nH]nc(C)c3c2C)cc1 | 3.04 nM
50 | COCCn1c(SCC(=O)NCCc2ccccc2)nnc1-c1ccco1 | 1.4 nM
51 | O=C(O)c1cc2c(s1)-c1ccccc1OC2 | 0.91 nM
52 | COc1ccc(/C=C(\C#N)C(N)=O)cc1OC | 1.31 nM
53 | COc1ccc(C2=Nn3c(nnc3-c3ccc(OC)cc3)SC2)cc1 | 1.28 nM
54 | O=S1(=O)CCN(Cc2cccc(Cl)c2)CC1 | 1.39 nM
55 | Cc1ccc(-c2nc(P(=O)(c3ccccc3)c3ccccc3)c(N3CCOCC3)o2)cc1 | 1.18 nM
56 | COc1ccc(OC)c(C(=O)CSc2nnc(Cc3cccs3)n2CCc2ccccc2)c1 | 1.33 nM
57 | O=C(Nc1ccccc1N1CCCCC1)c1ccc2nccnc2c1 | 1.35 nM
58 | CCOC(=O)CSc1nc(Cc2ccccc2)nc2ccccc12 | 1.15 nM
59 | O=C(Cc1ccc(Cl)cc1)Nc1ccccc1Sc1ccccc1 | 1.07 nM
